From publication PMC4563140 (EBioMedicine, 2015)
In brackets after ≈: the same amount, converted by molar mass. Several values for one entry are separate records, joined by “and”; a condition that tells them apart may be missing. Equal values may be shown once. Read-outs that look alike come from different tables or passages of the source.

Key:
[1] = test system: M.tb isolates from BALB/c mice after four months of treatment; assay: microbe, parasite or virus in culture; format: cell-based; details: Mycobacterium tuberculosis, read-out: minimum inhibitory concentration
[2] = for rifampin area under curve (0–18 h): rifampin 10 mg/kg
M.tb H37Rv = assay: Relapse 3 months after ending treatment, BALB/c mice; format: in vivo
wild type H37Rv = assay: microbe, parasite or virus in culture; format: cell-based; details: Mycobacterium tuberculosis, read-out: minimal inhibitory concentration
[3] = test system: bone marrow-derived macrophages (BMDM) from BALB/c and C3HeB/FeJ mice; format: cell-based
[4] = Observation of adverse effects in mice during the study period; format: in vivo; details: tofacitinib 30 mg/kg/day (the higher dose)
[5] = test system: JAK tyrosine kinase activity; details: ref Dowty et al., 2014; cited from earlier work
[6] = human, recommended doses; ref Dowty et al., 2014; cited from earlier work

Compound	MIC [1] [µg/mL]	rifampin area under curve (0–18 h) ([2]; mouse serum, co-administered tofacitinib 15 mg/kg) [μg/ml·H]	rifampin area under curve (0–18 h) ([2]; mouse serum, co-administered tofacitinib 22.5 mg/kg) [μg/ml·H]	rifampin area under curve (0–18 h) ([2]; mouse serum, co-administered tofacitinib 30 mg/kg) [μg/ml·H]	relapse rate, Std-Rx plus tofacitinib versus Std-Rx alone (M.tb H37Rv)	MIC (wild type H37Rv) [µg/mL]	effect on cytokine levels (TNF-α, IL-1β) of BMDMs [3]	adverse effects in mice [4]	peak tofacitinib serum concentration in mice during PK experiments ([2]; as stated in section 3.3) [µg/mL]	effect of tofacitinib co-administration on the serum concentration of rifampin ([2]; mice, tofacitinib 15, 22.5, 30 mg/kg/day with rifampin 10 mg/kg)	concentration of tofacitinib 2 h after the dose ([2]; mouse serum, with or without co-administration of rifampin, all doses tested) [ng/mL]	average exposure in mice relative to patients with rheumatoid arthritis on 10 mg per day ([2]; tofacitinib 30 mg/kg/day in two divided doses)	concentration of tofacitinib required to inhibit JAK tyrosine kinase activity [5]	elimination half-life [6]
CO[C@H]1/C=C/O[C@@]2(C)Oc3c(C)c(O)c4c(O)c(c(/C=N/N5CCN(C)CC5)c(O)c4c3C2=O)NC(=O)/C(C)=C\C=C\[C@H](C)[C@H](O)[C@@H](C)[C@@H](O)[C@@H](C)[C@H](OC(C)=O)[C@@H]1C [rifampin]	0.25 (≈ 0.304 µM)	77	93	103										
C[C@@H]1CCN(C(=O)CC#N)C[C@@H]1N(C)c1ncnc2[nH]ccc12 [tofacitinib]					did not differ	> 64	did not alter the cytokine levels	did not observe any adverse effects	3	no effect	250 to 500	at least three to five	100 nM and 31.2 ng/mL	~ 3 h
NNC(=O)c1ccncc1 [isoniazid]	0.04 (≈ 0.292 µM)													
